Data from the NIST ThermoML archive (doi:10.1016/j.tca.2011.02.002).

How the values were obtained:
[1] = xn = mol fraction of the nth substance listed; details: 101 kPa, Liquid; for mass density: Vibrating tube method
[2] = excess molar enthalpy (molar enthalpy of mixing); xn = mol fraction of the nth substance listed; details: 308.15 K, 101 kPa, Liquid, 2-drop calorimeter (CSC 4600_

Cc1ccncc1 [4-methylpyridine] + C1CCOCC1
[1]
Details	mass density, 298.15 K [kg/m3]	mass density, 303.15 K [kg/m3]	mass density, 308.15 K [kg/m3]	speed of sound, 298.15 K [m/s]	speed of sound, 303.15 K [m/s]	speed of sound, 308.15 K [m/s]
x2 = 0	950.179	945.413	940.821	1431.5	1410.7	1389.9
x2 = 0.0521	946.678	941.884	936.955	1422.7	1402.2	1380.6
x2 = 0.0832	944.577	939.773	935.004	1417.5	1397.2	1376.2
x2 = 0.1426	940.548	935.733	931.541	1407.8	1387.6	1368.4
x2 = 0.1882	937.434	932.615	928.307	1400.5	1380.3	1360.8
x2 = 0.2536	932.939	928.121	923.922	1390.1	1369.7	1350.5
x2 = 0.2902	930.406	925.591	921.331	1384.3	1363.8	1344.4
x2 = 0.3415	926.841	922.019	917.744	1376.1	1355.3	1336
x2 = 0.3782	924.275	919.451	914.432	1370.3	1349.3	1328
x2 = 0.4323	920.471	915.637	911.254	1361.6	1340.5	1320.8
x2 = 0.4913	916.295	911.443	907.207	1352.1	1330.7	1311.3
x2 = 0.5437	912.559	907.692	903.227	1343.6	1322	1302.1
x2 = 0.5991	908.587	903.687	899.247	1334.5	1312.8	1292.8
x2 = 0.6427	905.441	900.515	895.885	1327.3	1305.5	1285.2
x2 = 0.7015	901.173	896.211	891.453	1317.7	1295.7	1275
x2 = 0.7822	895.277	890.253	887.03	1304.4	1282.3	1264.5
x2 = 0.8263	892.032	886.976	882.795	1297.2	1275	1255.2
x2 = 0.8846	887.726	882.631	877.665	1287.9	1265.5	1243.9
x2 = 0.9435	883.352	878.225	873.901	1278.6	1255.9	1235.3

[2]
Details	excess molar enthalpy [kcal/mol]
x2 = 0.0442	0.00296
x2 = 0.1216	0.0102
x2 = 0.1982	0.0182
x2 = 0.2416	0.0233
x2 = 0.2882	0.0282
x2 = 0.3401	0.0323
x2 = 0.3876	0.0366
x2 = 0.4371	0.0395
x2 = 0.4834	0.0416
x2 = 0.5256	0.0419
x2 = 0.5934	0.0413
x2 = 0.6433	0.039
x2 = 0.6925	0.0359
x2 = 0.7367	0.0316
x2 = 0.7952	0.0256
x2 = 0.8262	0.0227
x2 = 0.8842	0.015
x2 = 0.9406	0.00777

Cc1cccnc1 [3-methylpyridine] + C1CCOCC1
[1]
Details	mass density, 298.15 K [kg/m3]	mass density, 303.15 K [kg/m3]	mass density, 308.15 K [kg/m3]	speed of sound, 298.15 K [m/s]	speed of sound, 303.15 K [m/s]	speed of sound, 308.15 K [m/s]
x2 = 0	952.002	947.449	942.831	1424	1404	1384
x2 = 0.0562	948.099	943.521	938.854	1415.9	1395.6	1375.6
x2 = 0.0848	946.113	941.519	936.827	1411.8	1391.4	1371.4
x2 = 0.1357	942.576	937.954	933.219	1404.5	1383.9	1363.8
x2 = 0.1826	939.306	934.651	929.891	1397.8	1377.1	1356.8
x2 = 0.2461	934.857	930.166	925.361	1388.8	1367.8	1347.2
x2 = 0.2833	932.236	927.522	922.691	1383.3	1362.3	1341.5
x2 = 0.3345	928.61	923.861	919.004	1375.8	1354.5	1333.6
x2 = 0.3813	925.271	920.499	915.608	1368.6	1347.3	1326.2
x2 = 0.4262	922.049	917.247	912.336	1361.8	1340.3	1319.2
x2 = 0.4827	917.964	913.129	908.186	1353	1331.2	1310.1
x2 = 0.5378	913.951	909.085	904.106	1344.3	1322.4	1301.2
x2 = 0.5924	909.933	905.038	900.027	1335.5	1313.3	1292.3
x2 = 0.6382	906.545	901.626	896.591	1328	1305.7	1284.7
x2 = 0.6982	902.068	897.114	892.051	1318.1	1295.6	1274.7
x2 = 0.7568	897.664	892.682	887.584	1308.6	1285.8	1264.9
x2 = 0.8138	893.349	888.335	883.218	1299.2	1276.4	1255.4
x2 = 0.8825	888.124	883.068	877.926	1288.2	1265.1	1243.9
x2 = 0.9321	884.334	879.246	874.092	1280.3	1257.2	1235.7

[2]
Details	excess molar enthalpy [kcal/mol]
x2 = 0.0532	0.0059
x2 = 0.1118	0.0118
x2 = 0.1802	0.0181
x2 = 0.2238	0.0215
x2 = 0.2732	0.0248
x2 = 0.3311	0.0277
x2 = 0.3913	0.0298
x2 = 0.4461	0.0302
x2 = 0.4803	0.0304
x2 = 0.5365	0.0299
x2 = 0.5868	0.0293
x2 = 0.6344	0.0276
x2 = 0.6802	0.0249
x2 = 0.7355	0.0221
x2 = 0.7832	0.0184
x2 = 0.8326	0.0149
x2 = 0.8914	0.00963
x2 = 0.9336	0.00607

Cc1ccccn1 [2-methylpyridine] + C1CCOCC1
[1]
Details	mass density, 298.15 K [kg/m3]	mass density, 303.15 K [kg/m3]	mass density, 308.15 K [kg/m3]	speed of sound, 298.15 K [m/s]	speed of sound, 303.15 K [m/s]	speed of sound, 308.15 K [m/s]
x2 = 0	939.802	935.117	930.414	1380.1	1361	1339.9
x2 = 0.0367	937.731	933.031	928.307	1376.6	1357.6	1336.4
x2 = 0.0731	935.665	930.947	926.208	1373	1354.1	1332.8
x2 = 0.1274	932.552	927.811	923.053	1367.7	1348.5	1327.2
x2 = 0.1751	929.795	925.036	920.257	1363	1343.5	1322
x2 = 0.2373	926.162	921.378	916.581	1356.6	1336.7	1315.2
x2 = 0.2752	923.926	919.13	914.323	1352.6	1332.5	1310.9
x2 = 0.3262	920.901	916.081	911.259	1347.2	1326.7	1305.1
x2 = 0.3817	917.578	912.735	907.895	1341.2	1320.4	1298.7
x2 = 0.4248	914.974	910.121	905.265	1336.5	1315.4	1293.7
x2 = 0.4916	910.915	906.032	901.153	1328.9	1307.5	1285.8
x2 = 0.5525	907.178	902.268	897.366	1322	1300.4	1278.5
x2 = 0.6147	903.336	898.401	893.468	1314.9	1293	1271.1
x2 = 0.6674	900.064	895.101	890.14	1308.7	1286.8	1264.8
x2 = 0.7018	897.916	892.937	887.961	1304.7	1282.7	1260.7
x2 = 0.7736	893.419	888.402	883.383	1296.3	1274.2	1252
x2 = 0.8219	890.381	885.337	880.292	1290.6	1268.4	1246.2
x2 = 0.8673	887.518	882.452	877.377	1285.3	1262.9	1240.7
x2 = 0.9428	882.751	877.641	872.516	1276.5	1253.8	1231.5

[2]
Details	excess molar enthalpy [kcal/mol]
x2 = 0.0511	0.00394
x2 = 0.1102	0.00915
x2 = 0.1773	0.016
x2 = 0.2121	0.0196
x2 = 0.2683	0.0253
x2 = 0.3182	0.03
x2 = 0.3905	0.0356
x2 = 0.4304	0.0391
x2 = 0.4822	0.0413
x2 = 0.5216	0.0437
x2 = 0.5755	0.0442
x2 = 0.6213	0.0442
x2 = 0.6786	0.0428
x2 = 0.7288	0.0409
x2 = 0.7754	0.0373
x2 = 0.8216	0.0323
x2 = 0.8852	0.0232
x2 = 0.9217	0.0168
